Source: patent publication US20110105382A1, “CALMODULIN-BINDING PEPTIDES THAT REDUCE CELL PROLIFERATION IN CANCER AND SMOOTH MUSCLE PROLIFERATION DISEASES” (priority 2007, published 2011)
Entries after “also recorded” stand apart in the source; their conditions may differ. Where no end group is shown, it is not given here.

Assays:
[1] = system: cyclins E1/E2 double knockout MEF; experiment: Cell cycle analysis, cyclin E1/E2 double knockout MEF; assay type: cell-based, mouse; conditions: starved cells, serum stimulation 10% FBS, 24 hr (peptide) or 20 hr (CMZ)
Protocol: (§1) Cell culture conditions The isolation and culture of primary mouse aortic VSMC have was performed according to methods previously described (Afroze T, Yang L L, Wang C, Gros R, Kalair W, Hogue A N, Mungrue I N, Zhu Z, Husain M. Calcineurin-independent regulation of plasma membrane Ca2+ ATPase-4 in the vascular smooth muscle cell cycle. Am J Physiol Cell Physiol. July 2003; 285(1):C88-95). VSMCs were grown in DMEM (GIBCO/BRL, Gaithersburg, Md.) supplemented with 10% FBS (Hyclone, Logan, Utah), 50 ng/mL platelet-derived growth factor (PDGF, Sigma) and 1% penicillin-streptomycin (GIBCO/BRL). For serum starvation, cells were grown to 60% to 70% confluence, washed twice with PBS, and cultured in starvation medium (0.25% FBS-supplemented DMEM) for 72 hours to achieve Go arrest. Progression to G1/S was brought about by stimulation with 10% FBS and 50 ng/mL PDGF for 24 hours. Cells and reagents for primary human aortic VSMC culture were purchased from Cascade Biologics. Human VSMC(C-007-5C) were grown in Medium 231 with Smooth Muscle Growth Supplement (SMGS) S-007-25 and 1% penicillin-streptomycin (GIBCO/BRL). […]
Flow cytometric analysis. […] Cells were counted in a flow cytometer (FACScan, BD Biosciences), and G0/G1, S, and G2/M cell percentages were calculated with Cell Quest software (BD Biosciences).

[2] = system: primary mouse aortic SMC; assay type: cell-based
Protocol: (§2) Cell culture conditions The isolation and culture of primary mouse aortic VSMC have was performed according to methods previously described (Afroze T, Yang L L, Wang C, Gros R, Kalair W, Hogue A N, Mungrue I N, Zhu Z, Husain M. Calcineurin-independent regulation of plasma membrane Ca2+ ATPase-4 in the vascular smooth muscle cell cycle. Am J Physiol Cell Physiol. July 2003; 285(1):C88-95). VSMCs were grown in DMEM (GIBCO/BRL, Gaithersburg, Md.) supplemented with 10% FBS (Hyclone, Logan, Utah), 50 ng/mL platelet-derived growth factor (PDGF, Sigma) and 1% penicillin-streptomycin (GIBCO/BRL). For serum starvation, cells were grown to 60% to 70% confluence, washed twice with PBS, and cultured in starvation medium (0.25% FBS-supplemented DMEM) for 72 hours to achieve Go arrest. Progression to G1/S was brought about by stimulation with 10% FBS and 50 ng/mL PDGF for 24 hours. Cells and reagents for primary human aortic VSMC culture were purchased from Cascade Biologics. Human VSMC(C-007-5C) were grown in Medium 231 with Smooth Muscle Growth Supplement (SMGS) S-007-25 and 1% penicillin-streptomycin (GIBCO/BRL). Cyclin E1/E2 double knockout mouse embryonic fibroblasts (MEF) were kindly provided by Dr. P. Sicinski (Harvard Medical School), and maintained in DMEM with 10% FBS (Hyclone) and 1% penicillin-streptomycin (GIBCO/BRL). Go arrest of MEF was achieved by starvation for 48 h in medium lacking FBS. Mouse embryonic fibroblasts (MEF) were maintained for normal culture in 10% FBS-supplemented DMEM. For the starvation of MEF, cells were cultured in starvation medium without FBS for 48 hours to achieve Go arrest. HeLa (human cervical cancer cell), Saos-2 (human osteosarcoma cell) and A549 (human lung cancer cell) were cultured in 10% FBS-supplemented DMEM.
(§3) MTT colorimetric survival assay. Active mitochondria of living cells can cleave MTT to produce formazan, the amount of which is directly proportional to the number of living cells. Cell survival was assessed (Denizot, 1986). Cells in 96-well plate were washed two times with PBS followed by 4 hr of incubation at 37° C. with 1 mg/ml of MTT (in phenol red free DMEM supplemented with 2 mM of L-glutamine & 1 mM of sodium pyruvate) in a reaction volume of 100 μl. After removing MTT solution, DMSO was added to dissolve formazan crystals. Plate was shaken for 5 min at 55° C. for complete dissolve. Dye absorbance in viable cells was measured at 570 nm with 630 nm as a reference wavelength. All experiments were repeated at least 3 times, and each experimental condition was repeated in at least quadruplicate wells in each experiment.
Nucleofection. For peptides delivery via Nucleofector technology, 1×10^6 cells were harvested, resuspended in 100 μl of Nucleofector solution (for VSMC: Cat. No. VPI-1004; for MEF: Cat. No.: VPD-1005, both provided by Amaxa GmBH, Köln, Germany) and mixed with 100 nmole (in 10 μl) of each peptide. The cell solution was transferred into a kit-provided cuvette and positioned into a Nucleofector device. Subsequently, the transfection was performed with a single pulse using the preprogrammed nucleofection program (A-33 for VSMC; T-20 for MEF) according to the manufacturer's recommendation. Following nucleofection, the cells were transferred into 96-well plate (2K or 5K cells per well for MTT assay) or T25 culture flasks (for FACS analysis) containing pre-warmed stem cell medium using kit-provided plastic pipettes to prevent cell damage and the cells were cultured at 37° C. in 5% CO2.

[3] = system: HeLa (human cervical cancer cell); experiment: MTT proliferation assay, HeLa; assay type: cell-based; conditions: 100 μM, MTT after 2 days
Protocol: as §2, §3

[4] = system: Saos-2 (human osteosarcoma); experiment: MTT proliferation assay, Saos-2; assay type: cell-based; conditions: 100 μM, MTT after 2 days
Protocol: as §2, §3

[5] = system: A549 (human lung cancer cell); experiment: MTT proliferation assay, A549; assay type: cell-based; conditions: 100 μM, MTT after 2 days
Protocol: as §2, §3

[6] = system: primary human aortic VSMC; experiment: 3H-thymidine incorporation assay, human aortic VSMC; assay type: cell-based; conditions: 10 and 100 μM for 1.0 h, 72 h after treatment; listed as TAT-CBS
Protocol: as §1, with “Biologics.” for “Biologics. Human VSMC(C-007-5C) were grown in Medium 231 with Smooth Muscle Growth Supplement (SMGS) S-007-25 and 1% penicillin-streptomycin (GIBCO/BRL).”
(§4) ^3H-thymidine incorporation proliferation assay. […] Cells were grown at 37° C. and analyzed at 24, 48 and 72 h after ^3H-thymidine exposure. […] Solubilized contents of wells were removed and added to 2.5 ml of scintillation fluid (ReadySafe™ Cocktail, Beckman Coulter, Product No. 141349). Radioactivity was measured in a scintillation counter (Beckman Coulter, LS 6500).

[7] = system: MEF; experiment: 3H-thymidine incorporation assay, MEF; assay type: cell-based, mouse; conditions: 10 and 100 μM for 1.0 h, 48 h after treatment; listed as TAT-CBS
Protocol: as §1, with “Biologics.” for “Biologics. Human VSMC(C-007-5C) were grown in Medium 231 with Smooth Muscle Growth Supplement (SMGS) S-007-25 and 1% penicillin-streptomycin (GIBCO/BRL).”
as §4

[8] = system: Cyclin E1/E2 KO MEF; experiment: 3H-thymidine incorporation assay, Cyclin E1/E2 KO MEF; assay type: cell-based, mouse; conditions: 10 and 100 μM for 1.0 h, 48 h after treatment; listed as TAT-CBS
Protocol: as §1, with “Biologics.” for “Biologics. Human VSMC(C-007-5C) were grown in Medium 231 with Smooth Muscle Growth Supplement (SMGS) S-007-25 and 1% penicillin-streptomycin (GIBCO/BRL).”
as §4

Compound	cell cycle progression into S phase, cyclins E1/E2 double knockout MEF [1]	IC50 [2]	maximum level of inhibition of VSMC proliferation [2]	proliferation of HeLa cells (MTT) [3]	proliferation of Saos-2 cells (MTT) [4]	proliferation of A549 cells (MTT) [5]	3H-thymidine incorporation (S-phase entry), human aortic VSMC [6]	3H-thymidine incorporation (S-phase entry), MEF [7]	3H-thymidine incorporation (S-phase entry), Cyclin E1/E2 KO MEF [8]
Clc1ccc(C(c2ccc(Cl)cc2)n2cc[n+](CC(OCc3ccc(Cl)cc3Cl)c3ccc(Cl)cc3Cl)c2)cc1 (stereo not drawn) [calmidazolium]	did inhibit								
RRRQRRKKRGGGAEFSARSRKRKANVTVFLQD [TAT-SEQ ID NO:2]		8.89 ± 1.24 µM	70%	inhibited	inhibited	inhibited	dose-dependent inhibitory effect; also recorded: inhibited; also recorded: dose-dependent, anti-proliferative effect	observed; also recorded: dose-dependent, anti-proliferative effect	not and not able to produce an anti-proliferative effect
